Numbered stars: 1 amine (or outer) side, 2 acyl side, 3 side chain; on linkers, the order of the positions; unused ones are H or OH. Square brackets hold non-standard residues; d marks the D form. Peptide text beside a SMILES is read from it. β3hPhg = O=C(C[C@@H](N[*:1])c1ccccc1)[*:2]; ΔPro = O=C(O)[C@@H]1C=CCN1; Abu = CC[C@H](N)C(=O)O
Assay: Immunosuppressive activity in C57BL/6 mouse lymph node cells after 24 hrs by MTT assay
Format: functional
Details: C57BL/6, 24 h

| SMILES | IC50 [µM] |
| --- | --- |
| CCCCCCC[C@@H]1NC(=O)[C@H](CC)NC(=O)C[C@H](c2ccccc2)NC(=O)[C@H](CO)NC(=O)[C@H](CC)NC1=O | 65.2 |
| CC[C@@H]1NC(=O)C[C@H](c2ccccc2)NC(=O)[C@H](CO)NC(=O)[C@H](CC)NC(=O)[C@H](C)NC1=O (cyclo(A[Abu]S[β3hPhg][Abu])) | > 100 |
| CC[C@@H]1NC(=O)C[C@H](c2ccccc2)NC(=O)[C@H](CO)NC(=O)[C@H](CC)NC(=O)[C@H]([C@H](C)OC(=O)c2ccc[nH]2)NC1=O | > 100 |
| CC[C@@H]1NC(=O)C[C@H](c2ccccc2)NC(=O)[C@H](CO)NC(=O)[C@H](CC)NC(=O)[C@@H]([C@H](C)O)NC1=O | 51.8 |
| CC[C@@H]1NC(=O)C[C@H](c2ccccc2)NC(=O)[C@H](CO)NC(=O)[C@H](CC)NC(=O)[C@H]([C@H](C)O)NC1=O | > 100 |
| CC[C@@H]1NC(=O)[C@@H]2[C@@H](O)[C@@H](O)CN2C(=O)[C@H](CC)NC(=O)C[C@H](c2ccccc2)NC(=O)[C@H](CO)NC1=O | > 100 |
| CC[C@@H]1NC(=O)C[C@H](c2ccccc2)NC(=O)[C@H](CO)NC(=O)[C@H](CC)NC(=O)[C@H]([C@@H](C)O)NC1=O | > 100 |
| CC[C@@H]1NC(=O)C[C@H](c2ccccc2)NC(=O)[C@H](CO)NC(=O)[C@H](CC)NC(=O)[C@H](CC(C)C)NC1=O (cyclo([Abu]L[Abu]S[β3hPhg])) | > 100 |
| CC[C@@H]1NC(=O)C[C@H](c2ccccc2)NC(=O)[C@H](CO)NC(=O)[C@H](CC)NC(=O)[C@@H]([C@@H](C)O)NC1=O | 38.4 |
| CC[C@@H]1NC(=O)C[C@H](c2ccccc2)NC(=O)[C@H](CO)NC(=O)[C@H](CC)NC(=O)[C@H](CCCCN)NC1=O (cyclo([Abu]K[Abu]S[β3hPhg])) | > 100 |
| CC[C@@H]1NC(=O)C[C@H](c2ccccc2)NC(=O)[C@H](CO)NC(=O)[C@H](CC)NC(=O)[C@H](Cc2c[nH]cn2)NC1=O (cyclo([Abu]H[Abu]S[β3hPhg])) | > 100 |
| CC[C@@H]1NC(=O)C[C@H](c2ccccc2)NC(=O)[C@H](CO)NC(=O)[C@H](CC)NC(=O)[C@H](CCCNC(=N)N)NC1=O (cyclo([Abu]R[Abu]S[β3hPhg])) | > 100 |
| CC[C@@H]1NC(=O)C[C@H](c2ccccc2)NC(=O)[C@H](CO)NC(=O)[C@H](CC)NC(=O)[C@H](Cc2ccc(O)cc2)NC1=O (cyclo([Abu]S[β3hPhg][Abu]Y)) | > 100 |
| CC[C@@H]1NC(=O)C[C@H](c2ccccc2)NC(=O)[C@H](CO)NC(=O)[C@H](CC)NC(=O)[C@H](C(C)C)NC1=O (cyclo([Abu]S[β3hPhg][Abu]V)) | > 100 |
| CC[C@@H]1NC(=O)C[C@H](c2ccccc2)NC(=O)[C@H](CC)NC(=O)C[C@H](c2ccccc2)NC(=O)[C@H](CO)NC1=O | 61.8 |
| CC[C@@H]1NC(=O)[C@@H]2[C@H](Cl)[C@H](Cl)CN2C(=O)[C@H](CC)NC(=O)C[C@H](c2ccccc2)NC(=O)[C@H](CO)NC1=O | 12.6 |
| CC[C@@H]1NC(=O)[C@@H]2C=CCN2C(=O)[C@H](CC)NC(=O)C[C@H](c2ccccc2)NC(=O)[C@H](CO)NC1=O (cyclo([Abu]S[β3hPhg][Abu][ΔPro])) | > 100 |
| CC[C@@H]1NC(=O)C[C@H](c2ccccc2)NC(=O)[C@H](CO)NC(=O)[C@H](CC)NC1=O | > 100 |

Source: ChEMBL document CHEMBL4219267, “Design and synthesis of plant cyclopeptide Astin C analogues and investigation of their immunosuppressive activity” (Bioorg Med Chem Lett, 2018)
